Experimental findings from article PMC9645410 (Chemical Science, 2022) are described below.

For the experiment, the target named is GFPxm163 (Aequorea macrodactyla, UniProt Q8WTC8). As to the kind of experiment: fluorescence quenching titration. In kind it is binding.
Sequence of GFPxm163 (Q8WTC8 1-238): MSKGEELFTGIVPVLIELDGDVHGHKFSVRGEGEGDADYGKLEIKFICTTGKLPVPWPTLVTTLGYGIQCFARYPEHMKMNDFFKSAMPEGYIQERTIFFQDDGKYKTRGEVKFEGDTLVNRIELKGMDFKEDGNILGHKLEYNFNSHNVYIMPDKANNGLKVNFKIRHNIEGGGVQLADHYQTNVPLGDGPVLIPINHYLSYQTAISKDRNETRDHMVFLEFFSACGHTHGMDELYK
With `Br` [bromide], the Kd (usually the constant that tells how readily two partners part at equilibrium) was 46.2 ± 5.3 mM.

The compound `I` [iodide] yielded a Kd of 6.4 ± 0.1 mM.

Consider `O=[N+]([O-])O` [nitrate], for which binding was put at a Kd of 24.1 ± 0.8 mM.
